Literature values in patent publication US20090054493A1, “THIAZOLE DERIVATIVES AS PPAR DELTA LIGANDS AND THEIR MANUFACTURING PROCESS” (priority 2005, published 2009).
pEC50: −log10 of the molar value.

Experiments:
PPARδ = biological target: T1, PPARδ (Homo sapiens, UniProt Q03181); details: background art, cited from earlier work
T1 sequence (Q03181 1-441): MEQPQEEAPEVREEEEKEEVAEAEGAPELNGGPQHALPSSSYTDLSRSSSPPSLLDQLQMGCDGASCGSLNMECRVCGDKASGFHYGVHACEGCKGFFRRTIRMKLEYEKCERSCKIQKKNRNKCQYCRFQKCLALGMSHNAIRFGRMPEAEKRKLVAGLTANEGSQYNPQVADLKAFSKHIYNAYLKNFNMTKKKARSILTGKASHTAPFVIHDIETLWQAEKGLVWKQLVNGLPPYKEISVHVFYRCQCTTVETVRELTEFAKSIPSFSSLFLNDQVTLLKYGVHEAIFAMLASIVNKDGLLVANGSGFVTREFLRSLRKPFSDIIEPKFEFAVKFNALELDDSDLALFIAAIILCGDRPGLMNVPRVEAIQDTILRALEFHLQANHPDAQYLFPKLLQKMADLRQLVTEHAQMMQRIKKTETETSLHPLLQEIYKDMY

PPARγ = biological target: T2, PPARγ (Mus musculus, UniProt P37238); details: test on rodents, background art; cited from earlier work
T2 sequence (P37238 1-505): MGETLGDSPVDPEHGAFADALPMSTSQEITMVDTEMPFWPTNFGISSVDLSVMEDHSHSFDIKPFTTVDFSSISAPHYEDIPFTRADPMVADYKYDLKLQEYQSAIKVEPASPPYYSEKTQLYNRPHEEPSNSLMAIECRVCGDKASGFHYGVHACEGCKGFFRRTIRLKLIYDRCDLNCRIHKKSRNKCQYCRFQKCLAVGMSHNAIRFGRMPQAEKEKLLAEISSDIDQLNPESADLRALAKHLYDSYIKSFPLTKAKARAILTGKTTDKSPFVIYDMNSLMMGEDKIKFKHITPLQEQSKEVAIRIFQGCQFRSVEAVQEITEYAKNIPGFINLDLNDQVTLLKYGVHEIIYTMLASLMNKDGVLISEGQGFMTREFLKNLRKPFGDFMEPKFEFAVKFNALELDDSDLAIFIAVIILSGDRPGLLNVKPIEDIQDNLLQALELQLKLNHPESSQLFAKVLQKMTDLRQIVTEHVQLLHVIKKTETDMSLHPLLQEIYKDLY

CCCc1c(OCCCOc2ccc(OCC(=O)O)cc2)ccc(C(C)=O)c1O [Example L-165041]
selectivity for hPPARδ than PPARα and PPARγ (PPARδ): 10 fold | pEC50 (PPARδ; hPPARδ): 6.28 | selectivity for PPARγ (PPARγ): almost no selectivity
